The values that follow come from patent US20250049970A1, “DLL3 TARGETING PEPTIDES AND CONSTRUCTS THEREOF” (MARIANA ONCOLOGY INC., priority 2023, published 2025).

Each structure is given as a SMILES string. pKd: −log10 of the molar value. Read-outs that look alike come from different tables or passages of the source. *1 amine or outer side, *2 acyl side, *3 side chain or, on linkers, in order; H or OH if unused. Where a SMILES comes first, the peptide text is derived from it. Bridges are numbered along the chain shown (N, C = ends). Roman numbers before positions name the chains, in order. Side-chain parts run from the residue outwards. [ ]: non-standard residue; d: D form. The star is where a group is joined. X11 = O=C(O)CN1CCN(CC(=O)O)CCN(CC(=O)NCCCOCCOCCOCCCN*)CCN(CC(=O)O)CC1; Ala(piperidin-4-yl) = O=C([C@H](CC1CCN([*:3])CC1)N[*:1])[*:2]; DOTA = O=C(O)CN1CCN(CC(=O)O)CCN(CC(=O)*)CCN(CC(=O)O)CC1; NMeW = CN[C@@H](Cc1c[nH]c2ccccc12)C(=O)O; 2Nal = N[C@@H](Cc1ccc2ccccc2c1)C(=O)O; Chg = N[C@H](C(=O)O)C1CCCCC1; Suc = O=C(CCC(=O)[*:2])[*:1]

The target in this test is T1, DLL3 (Homo sapiens, UniProt Q9NYJ7).
T1 sequence (Q9NYJ7 27-618): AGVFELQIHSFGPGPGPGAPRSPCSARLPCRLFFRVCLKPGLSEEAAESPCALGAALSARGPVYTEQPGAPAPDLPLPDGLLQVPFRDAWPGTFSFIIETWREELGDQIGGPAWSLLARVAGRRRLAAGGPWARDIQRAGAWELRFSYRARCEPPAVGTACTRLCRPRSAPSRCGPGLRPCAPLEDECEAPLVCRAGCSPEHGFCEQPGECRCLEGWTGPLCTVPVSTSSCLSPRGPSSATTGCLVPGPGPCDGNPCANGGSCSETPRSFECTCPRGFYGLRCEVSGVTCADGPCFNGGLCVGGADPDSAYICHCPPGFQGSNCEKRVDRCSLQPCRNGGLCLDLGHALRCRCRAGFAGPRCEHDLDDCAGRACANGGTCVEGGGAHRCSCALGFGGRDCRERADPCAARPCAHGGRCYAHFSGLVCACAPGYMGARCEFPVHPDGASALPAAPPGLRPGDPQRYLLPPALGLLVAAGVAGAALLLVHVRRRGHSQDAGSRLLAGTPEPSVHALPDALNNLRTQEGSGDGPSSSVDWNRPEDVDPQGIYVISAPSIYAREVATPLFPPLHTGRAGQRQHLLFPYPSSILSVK
As to the kind of experiment: SPR KD, biotinylated human DLL3 on streptavidin chip (Table 8). On the set-up: biotin (biotinylated). Particulars: biotinylated human DLL3 on streptavidin sensor chip, 25° C., 1:1 binding model. An excerpt:
Biotinylated target ligand human DLL3 was immobilized on a streptavidin sensor chip. A reference surface was set up for nonspecific binding and refractive index changes. […] Sensorgram curves were fitted with 1:1 binding model, and affinity and kinetic parameters were obtained using Biacore Insight evaluation 4.0. software.

Consider `CC(=O)N[C@@H](Cc1c[nH]c2ccccc12)C(=O)N[C@H](C(=O)N[C@H](C(=O)N[C@H]1CSSC[C@@H](C(=O)N[C@@H](Cc2c[nH]c3ccccc23)C(=O)N2CCC[C@H]2C(N)=O)NC(=O)[C@H](CC(=O)O)NC(=O)[C@H](CCCCNC(=O)CNC(=O)CNC(=O)CCC(=O)NCCCOCCOCCOCCCNC(=O)CN2CCN(CC(=O)O)CCN(CC(=O)O)CCN(CC(=O)O)CC2)NC(=O)[C@H](Cc2ccc3ccccc3c2)NC(=O)[C@H](CC(N)=O)NC(=O)[C@H](CC2CCNCC2)NC1=O)C1CCCCC1)[C@@H](C)O` [compound 406, Ac-W-T-(Chg)-C(3)-[3-(4-piperidinyl)-Ala]-N-(2Nal)-Lys(G-G-TTDS-DOTA)-D-C(3)-W-P-CONH2] (Ac-WT[Chg]C[Ala(piperidin-4-yl)]N[2Nal]K([Gly-Gly-Suc-X11])DCWP-NH2; disulfide 4-10), for which, under “read-out: SPR KD”, the pKd is > 9.00.

Turning to `CCC(C)(C)[C@H](NC(=O)[C@@H](NC(=O)[C@H](Cc1c[nH]c2ccccc12)NC(C)=O)[C@@H](C)O)C(=O)N[C@H]1CSSC[C@@H](C(=O)N[C@@H](Cc2c[nH]c3ccccc23)C(=O)N2CCC[C@H]2C(N)=O)NC(=O)[C@H](CC(=O)O)NC(=O)[C@H](CCCCNC(=O)CN2CCN(CC(=O)O)CCN(CC(=O)O)CCN(CC(=O)O)CC2)NC(=O)[C@H](Cc2ccc3ccccc3c2)NC(=O)[C@H](CC(N)=O)NC(=O)C(CN2CCOCC2)NC1=O` (single isomer, unassigned) [compound 306, Ac-W-T-(α-tert-amylGly)-C(3)-[3-(1-morpholinyl)-Ala]-N-(2Nal)-Lys(DOTA)-D-C(3)-W-P-CONH2], for the setting “read-out: SPR KD”, the pKd is > 9.00. The same measure, in the same setting: then `CC[C@H](C)[C@H](NC(=O)[C@@H](NC(=O)[C@H](Cc1c[nH]c2ccccc12)N(C)C(C)=O)[C@@H](C)O)C(=O)N[C@H]1CSSC[C@@H](C(=O)N[C@@H](Cc2c[nH]c3ccccc23)C(=O)N2CCC[C@H]2C(=O)O)NC(=O)[C@H](CC(=O)O)NC(=O)[C@H](Cc2c[nH]cn2)NC(=O)[C@H](Cc2c[nH]c3ccccc23)NC(=O)[C@H](CC(N)=O)NC(=O)[C@H](CC(N)=O)NC1=O` [compound 382, Ac-(NmeW)-T-I-C(3)-N-N-W-H-D-C(3)-W-P-CONH2] (Ac-[NMeW]TICNNWHDCWP-OH; disulfide 4-10), with 7.00 to 8.00; and `CC[C@H](C)[C@H](NC(=O)[C@@H](NC(=O)[C@H](Cc1c[nH]c2ccccc12)NC(=O)[C@H](CCSC)NC(C)=O)[C@@H](C)O)C(=O)N[C@H]1CSSC[C@@H](C(=O)N[C@@H](Cc2c[nH]c3ccccc23)C(=O)N2CCC[C@H]2C(N)=O)NC(=O)[C@H](CC(=O)O)NC(=O)[C@@H](C)NC(=O)[C@H](Cc2c[nH]c3ccccc23)NC(=O)[C@H](CC(N)=O)NC(=O)[C@H](CC(N)=O)NC1=O` [compound 72] (Ac-MWTICNNW[dA]DCWP-NH2; disulfide 5-11), with 6.52 to 7.00.

Turning to `CC(=O)N[C@@H](Cc1c[nH]c2ccccc12)C(=O)N[C@H](C(=O)N[C@H](C(=O)N[C@H]1CSSC[C@@H](C(=O)N[C@@H](Cc2c[nH]c3ccccc23)C(=O)N2CCC[C@H]2C(N)=O)NC(=O)[C@H](CC(=O)O)NC(=O)[C@H](CCCCNC(=O)CNC(=O)[C@H](CO)NC(=O)CNC(=O)[C@H](CO)NC(=O)CNC(=O)[C@H](CO)NC(=O)CN2CCN(CC(=O)O)CCN(CC(=O)O)CCN(CC(=O)O)CC2)NC(=O)[C@H](Cc2ccc3ccccc3c2)NC(=O)[C@H](CC(N)=O)NC(=O)[C@H](CC2CCNCC2)NC1=O)C1CCCCC1)[C@@H](C)O` [compound 407, Ac-W-T-(Chg)-C(3)-[3-(4-piperidinyl)-Ala]-N-(2Nal)-Lys(G-S-G-S-G-S-DOTA)-D-C(3)-W-P-CONH2] (I: Ac-WT[Chg]C[Ala(piperidin-4-yl)]N[2Nal]KDCWP-NH2 / II: {DOTA}-SGSGSG; disulfide I:4-I:10; amide I:8-II:C), the pKd (SPR KD) was > 9.00.
